Laboratory results published in US20020035738A1, “Plant protection method” (priority 1996, published 2002).

Assays:
Botrvtis cinerea = conditions: cited from earlier work
[1] = tested on: pBg12-GUS-tNOS (β-1.3-glucanase PR-2 type gene promoter); test: β-glucuronidase activity in pBg12-GUS-tNOS Arabidopsis plants upon chemical treatment; format: in vivo
Alterniaria alternata = conditions: cited from earlier work
[2] = tested on: pPDF1.2-GUS-tNOS reporter gene; test: β-glucuronidase activity in four-week-old pPDF1.2-GUS-tNOS Arabidopsis plants upon chemical treatment; format: in vivo
[3] = tested on: plant defensin gene expression (PDF1.2); test: Induction of plant defensins in Arabidopsis leaves upon chemical treatments (RNA gel blot, ELISA); format: in vivo
[4] = tested on: pPDF1.2-GUS-tNOS transgene; test: β-glucuronidase activity in seedlings of pPDF1.2-GUS-tNOS Arabidopsis lines germinated on jasmonic acid; format: in vivo, Arabidopsis thaliana ecotype C24; conditions: 10 μM jasmonic acid
Excerpt: The β-glucuronidase activity was normalized to the total protein content in each sample, as determined by the method of Bradford (1976) using bovine serum albumin as a […].

[5] = tested on: pPDF1.2-GUS-tNOS reporter gene; test: β-glucuronidase activity in pPDF1.2-GUS-tNOS tobacco plants upon chemical treatment; format: in vivo, tobacco (cv. Xanthi-nc); conditions: 8-week-old tobacco, treated leaves 48 h after treatment; SA S mM, MeJA 50 μM, paraquat 25 μgM
tobacco PR-1 gene = test: RNA gel blot analysis of tobacco PR-1 gene activation; format: in vivo; conditions: tobacco plants treated in the same way; not shown
A. brassicicola = format: cell-based, Alternaria brassicicola; conditions: FIG. 3D
[6] = treated leaves, 48 h, JA 500 μM, MeJA 50 μM, SA 5 mM, INA 1 mg/ml, BTH 300 μM, paraquat 25 μM, ethylene 25 ppm
[7] = treated leaves, 48 hours, JA 500 μM, MeJA 50 μM, SA 5 mM, INA 1 mg/ml, BTH 300 μM, paraquat 25 μM, ethylene 25 ppm
[8] = […], SA 5 mM, INA 1 mg/mL, paraquat 25 μM, rose bengal 20 mM, methyl jasmonate 45 μM in 0.1% ethanol, ethylene 20 ppm

CSC(=O)c1cccc2nnsc12 [BTH, 1,2,3-benzothiadiazole-7-carbothioic acid S-methylester]
protection of tobacco plants against infection by Botrytis cinerea (Botrvtis cinerea): failed to protect
β-glucuronidase activity in pBg12-GUS-tNOS plants [1, 6]: markedly increased
protection of tobacco plants against infection by Alternaria alternata (Alterniaria alternata): failed to protect
induction of the pPDF1.2-GUS-tNOS reporter gene (β-glucuronidase activity) [2, 7]: without effect

O=C(O)c1cc(Cl)nc(Cl)c1 [INA, 2,6-dichloroisonicotinic acid]
plant defensin gene expression (RNA blot analysis, ELISA) [3, 8]: no induction
β-glucuronidase activity in pBg12-GUS-tNOS plants [1, 6]: markedly increased
induction of the pPDF1.2-GUS-tNOS reporter gene (β-glucuronidase activity) [2, 7]: without effect

C=C [ethylene]
PDF1.2 accumulation ([3]; in vivo): no induced PDF1.2 accumulation
plant defensin gene expression (RNA blot analysis, ELISA) ([3]; in vivo): significantly increased
β-glucuronidase activity in pBg12-GUS-tNOS plants ([1]; in vivo): neither JA, MeJA, ethylene nor paraquat had any effect
induction of the pPDF1.2-GUS-tNOS reporter gene (β-glucuronidase activity) ([2]; in vivo): without effect
β-glucuronidase activity, single and combined treatments (synergy) ([2]; in vivo): did not cause increased

CC/C=C\C[C@H]1C(=O)CC[C@@H]1CC(=O)O [jasmonic acid]
β-glucuronidase activity in pBg12-GUS-tNOS plants [1, 6]: neither JA, MeJA, ethylene nor paraquat had any effect
induction of the pPDF1.2-GUS-tNOS reporter gene (β-glucuronidase activity) [2, 7]: induced
increase of β-glucuronidase activity in jasmonate treated versus untreated seedlings ([4]; all six lines tested): 9 to 25 fold
β-glucuronidase activity, JA-treated ([4]; transgenic line 3, 10-day-old seedlings): 2895 pmoles 4-methylumbelliferone r
β-glucuronidase activity, JA-treated ([4]; transgenic line 4, 10-day-old seedlings): 978 pmoles 4-methylumbelliferone r
β-glucuronidase activity, JA-treated ([4]; transgenic line 5, 10-day-old seedlings): 2676 pmoles 4-methylumbelliferone r
β-glucuronidase activity, JA-treated ([4]; transgenic line 6, 10-day-old seedlings): 2166 pmoles 4-methylumbelliferone r
β-glucuronidase activity, JA-treated ([4]; transgenic line 7, 10-day-old seedlings): 203 pmoles 4-methylumbelliferone r
β-glucuronidase activity, JA-treated ([4]; transgenic line 19, 10-day-old seedlings): 202 pmoles 4-methylumbelliferone r

CC/C=C\CC1C(=O)CCC1CC(=O)OC (stereo not drawn) [methyl jasmonate]
plant defensin gene expression (RNA blot analysis, ELISA) [3, 8]: significantly increased
PDF1.2 accumulation ([3]; sterile plants grown on an agar medium, ethylene alone 25 ppm, results not shown): still induced PDF1.2 accumulation
β-glucuronidase activity in pBg12-GUS-tNOS plants [1, 6]: neither JA, MeJA, ethylene nor paraquat had any effect
β-glucuronidase activity, single and combined treatments (synergy) ([2]; methyl jasmonate 0.5 μM, ethylene 25 ppm, ethephon 333 μM, FIG. 19): did not cause increased
induction of the pPDF1.2-GUS-tNOS reporter gene (β-glucuronidase activity) [2, 7]: induced

C[n+]1ccc(-c2cc[n+](C)cc2)cc1 [paraquat]
plant defensin gene expression (RNA blot analysis, ELISA) [3, 8]: strongly induced
β-glucuronidase activity in pBg12-GUS-tNOS plants [1, 6]: neither JA, MeJA, ethylene nor paraquat had any effect
induction of the pPDF1.2-GUS-tNOS reporter gene (β-glucuronidase activity) [2, 7]: induced

O=C([O-])c1c(Cl)c(Cl)c(Cl)c(Cl)c1-c1c2cc(I)c(=O)c(I)c-2oc2c(I)c([O-])c(I)cc12.[Na+].[Na+] [rose bengal]
plant defensin gene expression (RNA blot analysis, ELISA) [3, 8]: strongly induced

O=C(O)c1ccccc1O [salicylic acid]
plant defensin gene expression (RNA blot analysis, ELISA) [3, 8]: no induction
increase in β-glucuronidase activity [5]: 2 fold
β-glucuronidase activity in pBg12-GUS-tNOS plants [1, 6]: markedly increased
activation of the tobacco PR-1 gene (RNA gel blot) (tobacco PR-1 gene): induced only by salicylic acid
induction of the pPDF1.2-GUS-tNOS reporter gene (β-glucuronidase activity) [2, 7]: without effect

Rs-AFP1: a known radish plant defensin (QKLCERPSGTWSGVCGNNNACKNQCINLEKARHGSCNYVFPAHKCICYFPC; UniProt P69241 30-80, looked up)
character of the growth inhibition (hyphal morphology) (A. brassicicola): hyphal hyperbranching and tip swelling
